Converted amounts (≈) assume the structure as drawn. The source made the active and inactive calls. The calls are words filed in the database; no cut-off is given here. Numbered stars: 1 amine (or outer) side, 2 acyl side, 3 side chain; on linkers, the order of the positions; unused ones are H or OH. Bridge positions count the residues as written; N and C are the ends. Square brackets hold non-standard residues; d marks the D form. Peptide text beside a SMILES is read from it. I, II: the chains in the order shown. X1 = O=C1CC([*:2])C(=O)N1CCCCCC(=O)[*:1]; Dab = NCC[C@H](N)C(=O)O
Tests used:
[1] = test system: Staphylococcus aureus; experiment: Antibacterial activity against Staphylococcus aureus ATCC 6538p assessed as inhibition of bacterial growth incubated for 18 to 24 hrs; format: functional; details: time 18-24 hrs
[2] = test system: Staphylococcus aureus; experiment: Antibacterial activity against Staphylococcus aureus ATCC 12600 assessed as inhibition of bacterial growth incubated for 18 to 24 hrs; format: functional; details: time 18-24 hrs
[3] = test system: Staphylococcus aureus; experiment: Bactericidal activity against Staphylococcus aureus ATCC 12600 assessed as inhibition of bacterial growth incubated for 18 to 24 hrs; format: functional; details: time 18-24 hrs
[4] = test system: Staphylococcus aureus; experiment: Antibacterial activity against Staphylococcus aureus ATCC 43300 assessed as inhibition of bacterial growth incubated for 18 to 24 hrs; format: functional; details: time 18-24 hrs
[5] = test system: Staphylococcus aureus; experiment: Bactericidal activity against Staphylococcus aureus ATCC 43300 assessed as inhibition of bacterial growth incubated for 18 to 24 hrs; format: functional; details: time 18-24 hrs
[6] = test system: Staphylococcus epidermidis; experiment: Antibacterial activity against Staphylococcus epidermidis ATCC 12228 assessed as inhibition of bacterial growth incubated for 18 to 24 hrs; format: functional; details: time 18-24 hrs
[7] = test system: Staphylococcus epidermidis; experiment: Bactericidal activity against Staphylococcus epidermidis ATCC 12228 assessed as inhibition of bacterial growth incubated for 18 to 24 hrs; format: functional; details: time 18-24 hrs
[8] = test system: Streptococcus pneumoniae; experiment: Antibacterial activity against Streptococcus pneumoniae ATCC 49619 assessed as inhibition of bacterial growth incubated for 18 to 24 hrs; format: functional; details: time 18-24 hrs
[9] = test system: Streptococcus pneumoniae; experiment: Bactericidal activity against Streptococcus pneumoniae ATCC 49619 assessed as inhibition of bacterial growth incubated for 18 to 24 hrs; format: functional; details: time 18-24 hrs
[10] = test system: Staphylococcus saprophyticus; experiment: Antibacterial activity against Staphylococcus saprophyticus ATCC BAA-750 assessed as inhibition of bacterial growth incubated for 18 to 24 hrs; format: functional; details: time 18-24 hrs
[11] = test system: Staphylococcus saprophyticus; experiment: Bactericidal activity against Staphylococcus saprophyticus ATCC BAA-750 assessed as inhibition of bacterial growth incubated for 18 to 24 hrs; format: functional; details: time 18-24 hrs
[12] = test system: Streptococcus mutans; experiment: Antibacterial activity against Streptococcus mutans UA159 assessed as inhibition of bacterial growth incubated for 18 to 24 hrs; format: functional; details: time 18-24 hrs
[13] = test system: Streptococcus mutans; experiment: Bactericidal activity against Streptococcus mutans UA159 assessed as inhibition of bacterial growth incubated for 18 to 24 hrs; format: functional; details: time 18-24 hrs
[14] = test system: Streptococcus mutans; experiment: Bactericidal activity against Streptococcus mutans ATCC 25175 assessed as inhibition of bacterial growth incubated for 18 to 24 hrs; format: functional; details: time 18-24 hrs
[15] = test system: Escherichia coli; experiment: Antibacterial activity against Escherichia coli ATCC 25922 assessed as inhibition of bacterial growth incubated for 18 to 24 hrs; format: functional; details: time 18-24 hrs
[16] = test system: Escherichia coli; experiment: Bactericidal activity against Escherichia coli ATCC 25922 assessed as inhibition of bacterial growth incubated for 18 to 24 hrs; format: functional; details: time 18-24 hrs
[17] = test system: RAW264.7; experiment: Cytotoxicity against mouse RAW264.7 cells assessed as cell viability incubated for 48 hrs by MTT assay; format: functional
[18] = Binding affinity to AgrC-I extra-loop-II (unknown origin) assessed as dissociation constant incubated for 10 mins by isothermal titration calorimetry analysis
[19] = Binding affinity to AgrC-I extra-loop-I (unknown origin) assessed as change in enthalpy incubated for 10 mins by isothermal titration calorimetry analysis
[20] = Binding affinity to AgrC-I extra-loop-II (unknown origin) assessed as change in enthalpy incubated for 10 mins by isothermal titration calorimetry analysis
[21] = Binding affinity to AgrC-I extra-loop-III (unknown origin) assessed as change in enthalpy incubated for 10 mins by isothermal titration calorimetry analysis
[22] = species on record: Homo sapiens; experiment: Binding affinity to AgrC-I extra-loop-I (unknown origin) assessed as gibbs free energy change incubated for 10 mins by isothermal titration calorimetry analysis
[23] = species on record: Homo sapiens; experiment: Binding affinity to AgrC-I extra-loop-II (unknown origin) assessed as gibbs free energy change incubated for 10 mins by isothermal titration calorimetry analysis
[24] = species on record: Homo sapiens; experiment: Binding affinity to AgrC-I extra-loop-III (unknown origin) assessed as gibbs free energy change incubated for 10 mins by isothermal titration calorimetry analysis
[25] = species on record: Homo sapiens; experiment: Binding affinity to AgrC-I extra-loop-I (unknown origin) assessed as change in entropy incubated for 10 mins by isothermal titration calorimetry analysis
[26] = species on record: Homo sapiens; experiment: Binding affinity to AgrC-I extra-loop-III (unknown origin) assessed as change in entropy incubated for 10 mins by isothermal titration calorimetry analysis
[27] = Inhibition of quorum sensing system in Staphylococcus aureus ATCC 6538p assessed as downregulation of RNAIII expression level at 0.78 uM incubated for 24 hrs by qRT-PCR analysis
[28] = Inhibition of quorum sensing system in Staphylococcus epidermidis ATCC 12228 assessed as downregulation of RNAIII expression level at 0.78 uM incubated for 24 hrs by qRT-PCR analysis
[29] = test system: Staphylococcus aureus; experiment: Antivirulence activity against Staphylococcus aureus assessed as downregulation of hla expression level at 1 to 100 uM incubated for 24 hrs by qRT-PCR analysis; format: functional, organism-based; details: dose 1-100 µM
[30] = test system: Staphylococcus aureus; experiment: Antivirulence activity against Staphylococcus aureus assessed as downregulation of psm-alpha expression level at 1 to 100 uM incubated for 24 hrs by qRT-PCR analysis; format: functional, organism-based; details: dose 1-100 µM
[31] = test system: Erythrocyte; experiment: Hemolytic activity in rat RBC assessed as hemolysis measured after 20 hrs; format: toxicity, cell-based
[32] = test system: Staphylococcus aureus; experiment: Antibacterial activity against Staphylococcus aureus assessed as reduction in bacterial growth at 6.25 uM measured at 20 mins by time kill assay; format: functional, organism-based
[33] = test system: Staphylococcus epidermidis; experiment: Antibacterial activity against Staphylococcus epidermidis assessed as reduction in bacterial growth at 6.25 uM measured at 20 mins by time kill assay; format: functional, organism-based
[34] = test system: Streptococcus pneumoniae; experiment: Antibacterial activity against Streptococcus pneumoniae assessed as reduction in bacterial growth at 6.25 uM measured at 20 mins by time kill assay; format: functional, organism-based
[35] = test system: Escherichia coli; experiment: Antibacterial activity against Escherichia coli assessed as reduction in bacterial growth at 6.25 uM measured at 20 mins by time kill assay; format: functional, organism-based
[36] = test system: Staphylococcus aureus; experiment: Inhibition of biofilm formation in Staphylococcus aureus at 0.78 to 1.56 uM incubated for 24 hrs by crystal violet staining based analysis; format: functional, organism-based; details: dose 0.78-1.56 µM
[37] = test system: Staphylococcus aureus; experiment: Inhibition of biofilm formation in Staphylococcus aureus at 0.39 uM incubated for 24 hrs by crystal violet staining based analysis; format: functional, organism-based
[38] = test system: Staphylococcus aureus; experiment: Inhibition of biofilm formation in Staphylococcus aureus incubated for 24 hrs by crystal violet staining based microscopic analysis; format: functional, organism-based
[39] = Toxicity in Kunming mouse infected with Staphylococcus aureus ATCC 6538p assessed as animal survival rate 15 mg/kg, ip pre-infected with bacteria for 1 hr followed by compound administration and measured after 7 days; format: organism-based; details: in vivo, 168 h, time 7 day
[40] = Toxicity in Kunming mouse infected with Staphylococcus aureus ATCC 6538p assessed as animal survival rate 45 mg/kg, ip pre-infected with bacteria for 1 hr followed by compound administration and measured after 7 days; format: organism-based; details: in vivo, 168 h, time 7 day
[41] = Toxicity in Kunming mouse infected with Staphylococcus aureus ATCC 6538p assessed as weight loss 15 to 45 mg/kg, ip pre-infected with bacteria for 1 hr followed by compound administration and measured after 3 days; format: organism-based; details: in vivo, 72 h, dose 15-45 mg/kg, time 3 day
[42] = Toxicity in Kunming mouse infected with Staphylococcus aureus ATCC 6538p assessed as body weight gain 15 to 45 mg/kg, ip pre-infected with bacteria for 1 hr followed by compound administration and measured after 5 days; format: organism-based; details: in vivo, 120 h, dose 15-45 mg/kg, time 5 day

## CC[C@H](C)[C@H](NC(=O)CNC(=O)CNC(=O)[C@@H](N)CSC1CC(=O)N(CCCCCC(=O)NCC(=O)N[C@H](C(=O)N[C@@H](CCCCN)C(=O)N[C@@H](CC(N)=O)C(=O)N[C@@H](CC(C)C)C(=O)N[C@@H](Cc2c[nH]c3ccccc23)C(=O)N[C@@H](CCCCN)C(=O)N[C@@H](CCCCN)C(=O)N[C@@H](CCSC)C(=O)N[C@H](C(=O)N[C@@H](CCCCN)C(=O)N[C@@H](CC(C)C)C(=O)N[C@@H](Cc2c[nH]c3ccccc23)C(=O)N[C@@H](Cc2ccc(O)cc2)C(=O)O)[C@@H](C)CC)[C@@H](C)CC)C1=O)C(=O)N[C@@H](CC(N)=O)C(=O)N[C@H]1CCNC(=O)[C@H](CC(C)C)NC(=O)[C@H](CC(C)C)NC(=O)[C@H](Cc2ccccc2)NC(=O)[C@H](C)NC1=O (some centres not stated) (I: GIKNLWKKMIKLWY-OH / II: H-CGGIN[Dab]AFLL; linker I:N-II:1 via X1; lactam II:6-II:C)
[1]
  MIC: 3.13 µM (≈ 9.4 µg/mL)
[2]
  MIC: 3.13 µM (≈ 9.4 µg/mL)
[3]
  MBC: 3.13 µM (≈ 9.4 µg/mL)
[4]
  MIC: 6.25 µM (≈ 18.8 µg/mL)
[5]
  MBC: 6.25 µM (≈ 18.8 µg/mL)
[6]
  MIC: 1.56 µM (≈ 4.69 µg/mL)
[7]
  MBC: 3.13 µM (≈ 9.4 µg/mL)
[8]
  MIC: 6.25 µM (≈ 18.8 µg/mL)
[9]
  MBC: 6.25 µM (≈ 18.8 µg/mL)
[10]
  MIC: 3.13 µM (≈ 9.4 µg/mL)
[11]
  MBC: 3.13 µM (≈ 9.4 µg/mL)
[12]
  MIC: 6.25 µM (≈ 18.8 µg/mL)
[13]
  MBC: 6.25 µM (≈ 18.8 µg/mL)
[14]
  MBC: 3.13 µM (≈ 9.4 µg/mL)
[15]
  MIC: 3.13 µM (≈ 9.4 µg/mL)
[16]
  MBC: 12.5 µM (≈ 37.5 µg/mL)
[17]
  CC50: 71.1 µM
[18]
  Kd: 1 pM
[19]
  deltaH: -4.7 kcal/mol
[20]
  deltaH: inactive
[21]
  deltaH: inactive
[22]
  deltaG: -16.4 kcal/mol
[23]
  deltaG: -16.4 kcal/mol
[24]
  deltaG: -16.4 kcal/mol
[25]
  -TdeltaS: -11.7 kcal/mol
[26]
  -TdeltaS: -16.3 kcal/mol
[27]
  inhibition: Active
[28]
  inhibition: inactive
[29]
  Activity: Active
[30]
  Activity: Active
[31]
  Activity: Toxic
[32]
  Activity: Active
[33]
  Activity: inactive
[34]
  Activity: inactive
[35]
  Activity: inactive
[36]
  inhibition: Active
[37]
  inhibition: Active
[38]
  inhibition: Active
[39]
  Activity: 20%
[40]
  Activity: 50%
[41]
  Activity: Non-Toxic
[42]
  Activity: Non-Toxic
